Data as given in patent US20240002424A1, “HEXOSAMINE COMPOUNDS AND METHODS THEREOF” (National Institute of Immunology, priority 2021, published 2024).
Entries after “also recorded” stand apart in the source; their conditions may differ.

What was measured:
Format in all cases: cell-based, human
[1] = system: HL-60 cells; assay: Western blot of total lysates for sLeX (CSLEX1) epitopes; details: HL-60 total lysates; 50 μM, 72 h
Procedure: Effect of ManNAc analogues on expression of CD15s epitopes: HL-60 cells (3.0×10^5 cells/mL in 10 mL complete medium in 10 cm diameter petri dishes) were incubated with D, 1a, 1b, 1d, 1e, 1f, or 1g (50 mM), along with untreated (U) controls. After 72 h, cells were harvested, washed with PBS (3×5.0 mL), and lysed in RIPA buffer (10^7 cells in […]), containing protease inhibitor cocktail (PIC, 1:100). Protein concentration of the soluble fraction was estimated using the Bradford assay. Proteins from total lysates were resolved by 7.5% SDS-PAGE and blotted onto nitrocellulose membrane (constant current of 250 mA for 3.0 h at 4° C.). Membranes were blocked using non-fat milk (NFM) (5.0% w/v) in PBS and incubated with primary antibodies (5.0 mL PBS containing 5.0% NFM) overnight at 4° C. Membranes were washed with 0.1% PBS-T (0.1% v/v tween-20 in PBS; 3×5.0 mL, five min each at room temperature) followed by incubation with appropriate fluorophore or horse radish peroxidase (HRP) conjugated secondary antibodies for 1.0 h at room temperature. Membranes were washed with 0.1% PBS-T (3×5.0 mL, five min each) and then either directly scanned using Amersham Typhoon fluorescence scanner or developed on photographic films after treatment with enhanced chemiluminescence reagents. At least two independent replicate experiments were performed for all the blots.
The primary and secondary antibodies employed, along with dilution and stock concentration, are given below: Primary antibodies: Anti-CD15s (CSLEX1; IgM, dilution 1:5000; stock concentration 0.5 mg/mL) Anti-CLA (HECA452; IgM, dilution 1:1000, stock concentration 0.5 mg/mL) […] (AC15, IgG, dilution 1:20000, stock concentration 2.2 mg/mL); and Secondary Antibodies: AlexaFluor488-conjugated anti-mouse IgM (1:10000, stock concentration 2.0 mg/mL) AlexaFluor488-conjugated anti-rat IgM (1:10000, stock concentration 0.5 mg/mL) HRP-conjugated anti-mouse IgG (1:10000, stock concentration 0.8 mg/mL) Cy5-conjugated donkey anti-mouse IgG (1:10000, stock concentration 1.4 mg/mL) AlexaFluorplus488-conjugated anti-mouse IgG (1:10000, stock conc. 2.0 mg/mL).

[2] = system: Jurkat cells; assay: NeuAz expression on the cell surface by SPAAC with DBCO-Cy5 and flow cytometry, competition with Ac4ManNAz (1c); details: analogue 10 μM first, 1c 50 μM added at 12 h, estimation at 48 h
[3] = system: HL-60 cells; assay: Cell surface sialyl-Lewis-X (CD15s) by anti-CD15s (CSLEX1) flow cytometry; details: 50 μM, 24 h
Procedure: Effect of ManNAc analogues on the expression of sialyl-Lewis-X and Lewis-X: HL-60 cells (3.0×10^5 cells/mL in 2.0 mL complete medium in 6 well plate) were treated with D (vehicle), 1a, 1b, 1c, 1d, 1e, 1f, or 1g (50 PM), along with untreated (U) control. After 24 h, cells were harvested and washed with PBS (3×0.5 mL, 3000×g, 3.0 min at room temperature). Prior to last wash, cells were counted using Z2 coulter counter and aliquoted at 2.5×10^5 cells per sample and stained with either mouse anti-human CD15s (CSLEX1) (1.25 μg/mL) or mouse anti-human CD15 (HI98) (2.5 μg/mL) in HEPES/CaCl2) buffer (30 mM HEPES, 110 mM NaCl, 10 mM KCl, 2 mM MgCl2, 10 mM glucose, 1.5 mM CaCl2) containing 0.1% bovine serum albumin, pH 7.3) (total volume of 100 μL) for 30 min at 4° C. Cells were washed with HEPES/CaCl2 buffer (2×0.5 mL) and stained with AlexaFluor488-conjugated anti-mouse IgM (2.5 μg/mL) (for both CD15s and CD15) in 100 μL HEPES/CaCl2 for 30 min at 4° C. Cells were washed with HEPES/CaCl2 buffer (2×0.5 mL), resuspended in PBS (0.2 mL), treated with PI (2.5 μg/ml) and analysed by BD FACSVerse. Samples treated with (i) isotype antibodies followed by secondary antibody and (ii) secondary antibody alone were prepared as controls. Single Cells were gated for PI-negative population for 10,000 events and analysed by flow cytometry. Two replicate samples were prepared for each condition and each sample was counted twice. Three independent experiments were performed. Data was analysed using FlowJo V10. For plotting graph and calculation of significant probability ‘p’ values, two-way ANOVA with Dunnett's multiple comparison tests was employed in GraphPad Prism 8.
Time course of CD15s expression: HL-60 cells (3.0×10^5 cells/mL in 2.5 mL complete medium in 6-well plates) were incubated with D, 1a, 1b, or 1d (50 mM). At each time point, from day 1 to day 6, the cells were harvested from the entire contents of the well, washed, and aliquoted to 5.0×10^5 cells per sample, and immuno-stained using anti-CD15s (CSLEX1) antibody as mentioned above. On day 3, 4, and 5 complete media (1.0 mL) was added to each remaining well in order to compensate for media exhaustion. No contents were removed from the well during the period.

[4] = system: Jurkat cells; assay: GalNAz expression on the cell surface, co-incubation with Ac4GalNAz (3), DBCO-Cy5 flow cytometry; details: 50 μM co-incubated with 3 (50 μM)
Procedure: Effect of ManNAc analogues on NeuAz and GalNAz expression: Jurkat cells were incubated under various conditions, namely, (i) D, 1c, 3, 1a, or 1b alone, (ii) 1a or 1b in combination with 1c, (iii) 1a or 1b in combination with 3. After 24 h, cells were harvested, washed, labelled using DBCO-Cy5 ([…]), processed, and analysed by flow cytometry as mentioned above
The high degree of selectivity of ManNAc analogues for processing by the sialic acid biosynthetic pathway was further confirmed by competitive studies using Ac4GalNAz (3) which is known to be processed through both the mucin-type O-glycosylation (MTOG) and β-O-GlcNAc-ylation pathways. The expression of NeuAz by 1c was suppressed by 1a or 1b (50 μM) to an extent of 50% upon co-incubation. By contrast, no reduction in the expression of N-azidoacetyl-D-galactosamine (GalNAz) on the cell surface was noticed upon co-incubation of 3 (50 μM) with 1a or 1b (50 μM) (FIG. 6E and FIG. 7C).

[5] = system: HL-60 cells; assay: MAL-II lectin binding on intact cells by flow cytometry; details: 50 μM, 24 h
[6] = system: HL-60 cells; assay: Cell surface sialyl-Lewis-X (CD15s) by anti-CD15s (CSLEX1) flow cytometry

SMILES	sLeX (CSLEX1) bands between 150-100 kDa in western blot [1]	suppression of NeuAz expression, delayed addition of 1c [2] [%]	increase in binding of CSLEX1 antibody (sLeX) compared to controls [3] [fold]	reduction in expression of GalNAz on the cell surface [4]	MAL-II binding on intact cells compared to untreated cells [5]	increase in binding of CSLEX1 antibody (sLeX), in words [3]	maximum increase in sLeX levels on day 2 ([6]; single dosage 50 μM, day 2) [fold]	sLeX levels by day 6 (in words) ([6]; single dosage 50 μM, day 6)	sLeX levels on day 6, fold higher ([6]; single dosage 50 μM, day 6)	day of peak sLeX expression ([6]; single dosage 50 μM, time course day 1 to day 6) [days]	change in sLeX levels in time course (in words) ([6]; 50 μM, time course)
CC(=O)OC[C@H]1O[C@H](OC(C)=O)[C@@H](NC(=O)C2CC2)[C@@H](OC(C)=O)[C@@H]1OC(C)=O [Compound 1a, 1,3,4,6-tetra-O-acetyl-2-cyclopropanoylamino-2-deoxy-α-D-mannopyranose]	faint increase	30	~2.5	no reduction	significant gain	–	–	–	–	–	–
CC(=O)OC[C@H]1OC(OC(C)=O)[C@@H](NC(=O)C2CCC2)[C@@H](OC(C)=O)[C@@H]1OC(C)=O (stereo partly drawn) [Compound 1b, (3S,4R,5S,6R)-6-(acetoxymethyl)-3-(cyclobutanecarboxamido)tetrahydro-2H-pyran-2,4,5-triyl triacetate]	Robust increase	50	–	no reduction	significant gain	nearly a four-fold increase	3.0	returned to normal levels	approximately 2.3 fold	2	–
CC(=O)NC1C(OC(C)=O)OC(COC(C)=O)[C@@H](OC(C)=O)[C@@H]1OC(C)=O (stereo partly drawn) [Compound 1d, 1,3,4,6-tetra-O-acetyl-2-acetylamino-2-deoxy-α/β-D-mannopyranose]	negative for sLeX epitopes; also recorded: not detectable	–	–	–	–	–	–	–	–	–	no change
